What all share (assay type): cell-based
The test system of series [1] is Klebsiella pneumoniae KPN+19-15. The settings on record: Klebsiella pneumoniae KPN 19-15. In a few lines: (§1)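 Colonies from 18-24 h plates were suspended to 0.5 McFarland and diluted in MH broth. Two-fold compound dilutions were then mixed 1:1 with inoculum to reach 64 to 0.03 mg/L and (2-4) × 10^5 CFU/mL. Plates were sealed and incubated at 35-37°C for 16-20 h, after which the MIC was read.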

Series [2] has as its system Acinetobacter baumannii ABA19-1. The settings on record: Acinetobacter baumannii ABA19-1. In a few lines: as §1
Series [3] concerns Acinetobacter baumannii NCTC 13304 (OXA-27). The settings on record: Acinetobacter baumannii NCTC 13304 (OXA-27). The essentials:
as §1

Series [4] concerns Escherichia coli ATCC BAA-2523. The settings on record: Escherichia coli ATCC BAA-2523. In a few lines:
as §1

The test system of series [5] is Pseudomonas aeruginosa PAE19-3. The settings on record: Pseudomonas aeruginosa PAE19-3. The essentials:
as §1

In series [6] the test system is Klebsiella pneumoniae ATCC BAA-1705 (KPC). The settings on record: Klebsiella pneumoniae ATCC BAA-1705 (KPC). The essentials: as §1
The subject of series [7] is Escherichia coli ATCC BAA-2340 (KPC). The settings on record: Escherichia coli ATCC BAA-2340 (KPC). In a few lines:
as §1

Series [8] relates to Pseudomonas aeruginosa ATCC 27853. The settings on record: Pseudomonas aeruginosa ATCC27853. The essentials:
as §1

The nature of series [9]: Nephrotoxicity assay: in vitro cytotoxicity of HK-2 cells by CCK-8 assay. The settings on record: human, HK-2 cells (human renal), 72 h incubation with drug-containing medium. The essentials: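 HK-2 human renal cells in RPMI-1640 with 10% FBS were exposed to compounds at final 12.5–500 µg/mL for 72 h, then CCK-8 for 3 h and OD450 read. Viability was normalised to drug-free wells; IC50 came from logarithmic regression over three repeats, with polymyxin B as positive drug.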
(In general: Formazan colour is commonly taken as a measure of viable cells.)

Each structure is given as a SMILES string. ≈ marks a conversion by molar mass, not a printed value. Bridge positions count the residues as written; N and C are the ends. Square brackets hold non-standard residues; d marks the D form. Peptide text beside a SMILES is read from it. * marks the point of attachment. Heptanoyl(6-Me) = CC(C)CCCCC(=O)*; Dab = NCC[C@H](N)C(=O)O; Dap = NC[C@H](N)C(=O)O

As a reminder, the MIC is the lowest concentration found to suppress growth. Usually IC50 stands for the concentration needed to halve the response being measured. Read a low IC50 as higher potency. In the case of `CC(C)CCCCC(=O)N[C@@H](CCN)C(=O)N[C@H](C(=O)N[C@@H](CN)C(=O)N[C@H]1CCNC(=O)[C@H]([C@@H](C)O)NC(=O)[C@H](CCN)NC(=O)[C@H](CCN)NC(=O)[C@H]([C@@H](C)O)NC(=O)[C@@H](Cc2ccccc2)NC(=O)[C@H](CCN)NC1=O)[C@@H](C)O` [Compound 7, 6-methylheptanoyl-Dab-Thr-Dap-ring(4-10)[Dab-Dab-D-Phe-Thr-Dab-Dab-Thr]] ({Heptanoyl(6-Me)}-[Dab]T[Dap][Dab][Dab][dF]T[Dab][Dab]T; lactam 4-C), the MIC in [1] was no more than 0.03 µg/mL; in [2], no more than 0.03 µg/mL; in [3], no more than 0.03 µg/mL; in [4], no more than 0.03 µg/mL; in [5], 0.125 µg/mL (≈ 0.107 µM); in [6], no more than 0.03 µg/mL. For the same molecule, the MIC in series [7] and in series [8] was no more than 0.03 µg/mL throughout. In addition, the IC50 at 72 h in series [9] was greater than 500 µg/mL.

These data come from EP4725957A1, “GROUP OF CYCLIC ALKALINE LIPOPEPTIDE COMPOUNDS, AND PREPARATION METHOD THEREFOR AND USE THEREOF” (Institute of Medicinal Biotechnology, Chinese Academy of …, priority 2023, dated 2024).
